The record followed here is patent USRE46511E1, “Fused pyrimidine derivatives for inhibition of tyrosine kinase activity” (HANMI SCIENCE CO., LTD., priority 2010, dated 2017).

Test [1] relates to NCI-H1975 (EGFR L858R/T790M). As to the kind of experiment: Inhibition test for growth of cancer cell expressing EGFR (MTS), NCI-H1975. Format: cell-based. The settings on record: Homo sapiens; NCI-H1975 cells, 48 hours, MTS; read-out: GI50 NCI-H1975 EGFR L858R/T790M.
Test [2] deals with T1, ITK (Homo sapiens, UniProt Q08881).
T1 construct: purchased Invitrogen
T1 sequence (Q08881 1-620): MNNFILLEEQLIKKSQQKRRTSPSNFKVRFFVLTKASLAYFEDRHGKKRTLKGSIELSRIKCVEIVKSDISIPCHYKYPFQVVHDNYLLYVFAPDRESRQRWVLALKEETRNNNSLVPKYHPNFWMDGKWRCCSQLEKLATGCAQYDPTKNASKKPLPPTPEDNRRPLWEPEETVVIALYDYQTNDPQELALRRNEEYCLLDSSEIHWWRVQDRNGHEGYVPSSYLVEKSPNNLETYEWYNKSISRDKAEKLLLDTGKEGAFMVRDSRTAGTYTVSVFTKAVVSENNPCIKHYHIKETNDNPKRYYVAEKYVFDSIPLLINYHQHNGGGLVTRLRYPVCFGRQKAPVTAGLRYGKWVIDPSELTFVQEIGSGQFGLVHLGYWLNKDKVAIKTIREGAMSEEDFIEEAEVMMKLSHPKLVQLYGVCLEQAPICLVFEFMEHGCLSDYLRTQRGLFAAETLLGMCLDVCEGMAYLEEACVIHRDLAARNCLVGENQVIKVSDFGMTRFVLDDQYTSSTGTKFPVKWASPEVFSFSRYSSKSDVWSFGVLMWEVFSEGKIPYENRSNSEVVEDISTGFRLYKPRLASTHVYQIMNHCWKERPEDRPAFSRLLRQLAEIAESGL
In words: z-lyte kinase assay, ITK. It is filed as biochemical.

In test [3] the target is T2, JAK3 (Homo sapiens, UniProt P52333).
T2 construct: purchased Invitrogen
T2 sequence (P52333 1-1124): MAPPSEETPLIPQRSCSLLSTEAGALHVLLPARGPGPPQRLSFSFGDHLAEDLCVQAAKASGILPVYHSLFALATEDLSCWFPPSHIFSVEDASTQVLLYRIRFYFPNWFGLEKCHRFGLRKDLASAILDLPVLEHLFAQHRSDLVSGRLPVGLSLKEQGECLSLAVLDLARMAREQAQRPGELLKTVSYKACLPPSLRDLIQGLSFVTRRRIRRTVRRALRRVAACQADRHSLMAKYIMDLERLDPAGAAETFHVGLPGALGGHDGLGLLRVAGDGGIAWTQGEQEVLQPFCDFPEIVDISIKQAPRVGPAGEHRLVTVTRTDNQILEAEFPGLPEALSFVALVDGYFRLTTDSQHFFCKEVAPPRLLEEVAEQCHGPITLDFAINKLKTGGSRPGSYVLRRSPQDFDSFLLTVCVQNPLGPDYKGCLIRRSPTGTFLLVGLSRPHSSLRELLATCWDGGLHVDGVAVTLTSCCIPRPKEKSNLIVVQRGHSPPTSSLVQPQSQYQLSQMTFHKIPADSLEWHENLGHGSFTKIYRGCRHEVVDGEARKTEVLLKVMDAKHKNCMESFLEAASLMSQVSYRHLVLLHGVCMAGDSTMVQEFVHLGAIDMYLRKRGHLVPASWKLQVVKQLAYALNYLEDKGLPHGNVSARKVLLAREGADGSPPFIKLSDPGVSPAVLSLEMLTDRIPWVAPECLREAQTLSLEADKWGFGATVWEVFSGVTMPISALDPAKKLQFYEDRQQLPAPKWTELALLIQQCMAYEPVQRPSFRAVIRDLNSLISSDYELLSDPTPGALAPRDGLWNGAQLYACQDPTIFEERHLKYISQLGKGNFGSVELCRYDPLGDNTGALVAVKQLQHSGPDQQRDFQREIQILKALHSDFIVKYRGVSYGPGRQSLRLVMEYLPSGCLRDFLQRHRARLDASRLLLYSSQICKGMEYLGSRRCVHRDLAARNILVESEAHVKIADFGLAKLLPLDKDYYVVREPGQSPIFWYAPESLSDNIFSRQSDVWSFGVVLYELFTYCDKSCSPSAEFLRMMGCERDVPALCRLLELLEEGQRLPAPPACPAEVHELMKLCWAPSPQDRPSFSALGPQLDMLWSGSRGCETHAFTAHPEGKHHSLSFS
As to the kind of experiment: z-lyte kinase assay, JAK3. It is filed as biochemical. A digest of the protocol: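 Each kinase was mixed with peptide substrate, compound (dilution series made at 1–0.0001 μM in 4% DMSO) and ATP added from a 5~300 μM solution, then incubated 60 min at RT. After development reagent and stop solution, fluorescence was read at 400 nm excitation/520 nm emission and IC50 calculated.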

Test [4] addresses T3, RLK (Homo sapiens, UniProt P42681).
T3 construct: purchased Invitrogen
T3 sequence (P42681 1-527): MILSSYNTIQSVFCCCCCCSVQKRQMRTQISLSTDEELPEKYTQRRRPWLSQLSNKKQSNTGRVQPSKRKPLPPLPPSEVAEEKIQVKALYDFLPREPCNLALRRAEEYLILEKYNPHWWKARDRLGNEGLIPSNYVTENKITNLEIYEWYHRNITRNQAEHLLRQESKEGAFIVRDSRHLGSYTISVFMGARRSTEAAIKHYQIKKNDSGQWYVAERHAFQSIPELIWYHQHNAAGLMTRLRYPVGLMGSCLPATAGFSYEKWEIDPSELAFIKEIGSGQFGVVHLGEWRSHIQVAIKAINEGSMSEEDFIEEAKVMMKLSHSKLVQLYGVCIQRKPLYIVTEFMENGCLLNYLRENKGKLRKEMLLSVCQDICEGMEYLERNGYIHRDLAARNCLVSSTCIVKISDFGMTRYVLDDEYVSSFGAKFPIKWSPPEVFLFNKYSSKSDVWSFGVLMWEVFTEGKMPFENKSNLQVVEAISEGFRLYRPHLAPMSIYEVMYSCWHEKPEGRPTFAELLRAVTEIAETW
In words: z-lyte kinase assay, RLK. It is filed as biochemical.

For `C=CC(=O)Nc1cccc(Oc2nc(Nc3ccc(N4CCN(C)CC4)cc3)nc3ccsc23)c1` [Example 1, N-(3-(2-(4-(4-methylpiperazin-1-yl)phenylamino)thieno[3,2-d]pyrimidine-4-yloxy)phenyl)acrylamide], the GI50 in test [1] was below 50 nM. Besides, the IC50 in test [2] is 50 to 100 nM; in test [3] it was at most 50 nM; in test [4], at most 50 nM.

As a reminder, the IC50 is the concentration that inhibits the measured activity by half.
